US20160095843A1, “PYRAZOLOPYRROLIDINE DERIVATIVES AND THEIR USE IN THE TREATMENT OF DISEASE” (NOVARTIS AG, priority 2013, published 2016)

Key:
[1] = tested on: K-562 cells; assay: Cell growth inhibition assay (CellTiter-Glo), K-562; type: cell-based, human; settings: Homo sapiens, K562
Summary of the method: (§1)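 Cellular ATP (CellTiter-Glo luminescence) measured after 4 days at 37° C., 5% CO2 of compound exposure, top concentration 10 μM in 3-fold steps, 0.1% DMSO. Readings corrected for no-cell background and a day-0 plate, normalised to vehicle and medium wells; half-maximal and total growth inhibition from four-parameter curves.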

[2] = tested on: THP-1 cells; assay: Cell growth inhibition assay (CellTiter-Glo), THP-1; type: cell-based; settings: Homo sapiens
Summary of the method: as §1

[3] = tested on: MV-4-11 cells; assay: Cell growth inhibition assay (CellTiter-Glo), MV-4-11; type: cell-based; settings: Homo sapiens, MV4-11
Summary of the method: as §1

Row | SMILES | GI50 [1] [nM] | GI50 [2] [nM] | GI50 [3] [nM]
1 | CNC(=O)n1nc(C)c2c1C(=O)N(c1cc(C)c(=O)n(C)c1)C2c1ccc(Cl)cc1 (stereo not drawn) [Example 143, 4-(4-chlorophenyl)-5-(1,5-dimethyl-6-oxo-1,6-dihydropyridin-3-yl)-N,3-dimethyl-6-oxo-5,6-dihydropyrrolo-[3,4-c]pyrazole-1(4H)-carboxamide] | 1200 | 300 | 86
2 | CNC(=O)n1nc2c(c1C)C(c1ccc(Cl)cc1)N(c1cc(C)c(=O)n(C)c1)C2=O (stereo not drawn) [Example 144, 4-(4-chlorophenyl)-5-(1,5-dimethyl-6-oxo-1,6-dihydropyridin-3-yl)-N,3-dimethyl-6-oxo-5,6-dihydropyrrolo-[3,4-c]pyrazole-2(4H)-carboxamide] | 432 | 214 | 59.8
3 | CNC(=O)n1nc(C)c2c1C(=O)N(c1cc(C)c3nnc(C)n3c1)C2c1ccc(Cl)cc1 (stereo not drawn) [Example 145, 4-(4-chlorophenyl)-5-(3,8-dimethyl-[1,2,4]triazolo[4,3-a]pyridin-6-yl)-N,3-dimethyl-6-oxo-5,6-dihydropyrrolo[3,4-c]pyrazole-1(4H)-carboxamide] | 875 | 176 | 49.9
4 | CNC(=O)n1nc2c(c1C)C(c1ccc(Cl)cc1)N(c1cc(C)c3nnc(C)n3c1)C2=O (stereo not drawn) [Example 146, 4-(4-chlorophenyl)-5-(3,8-dimethyl-[1,2,4]triazolo[4,3-a]pyridin-6-yl)-N,3-dimethyl-6-oxo-5,6-dihydropyrrolo[3,4-c]pyrazole-2(4H)-carboxamide] | 314 | 150 | 39.2
5 | CCc1nn(C(=O)N(C)C)c2c1C(c1ccc(Cl)cc1)N(c1cc(C)c(=O)n(C)c1)C2=O (stereo not drawn) [Example 147, 4-(4-chlorophenyl)-5-(1,5-dimethyl-6-oxo-1,6-dihydropyridin-3-yl)-3-ethyl-N,N-dimethyl-6-oxo-5,6-dihydropyrrolo[3,4-c]pyrazole-1(4H)-carboxamide] | 792 | 157 | 67
6 | CCc1c2c(nn1C(=O)N(C)C)C(=O)N(c1cc(C)c(=O)n(C)c1)C2c1ccc(Cl)cc1 (stereo not drawn) [Example 148, 4-(4-chlorophenyl)-5-(1,5-dimethyl-6-oxo-1,6-dihydropyridin-3-yl)-3-ethyl-N,N-dimethyl-6-oxo-5,6-dihydropyrrolo-[3,4-c]pyrazole-2(4H)-carboxamide] | 1130 | 157 | 81.7
7 | Cc1nn(C(=O)N(C)C)c2c1[C@@H](c1ccc(Cl)cc1)N(c1cc(C)c3nnc(C)n3c1)C2=O [Example 149, (R)-4-(4-chlorophenyl)-5-(3,8-dimethyl-[1,2,4]triazolo[4,3-a]pyridin-6-yl)-N,N,3-trimethyl-6-oxo-5,6-dihydropyrrolo-[3,4-c]pyrazole-1(4H)-carboxamide] | 348 | 68.8 | 28
8 | Cc1cc(N2C(=O)c3nn(C(=O)N(C)C)c(C)c3[C@H]2c2ccc(Cl)cc2)cn2c(C)nnc12 [Example 150, (R)-4-(4-chlorophenyl)-5-(3,8-dimethyl-[1,2,4]triazolo[4,3-a]pyridin-6-yl)-N,N,3-trimethyl-6-oxo-5,6-dihydropyrrolo-[3,4-c]pyrazole-2(4H)-carboxamide] | 406 | 101 | 55.5
9 | Cc1nn(C2CNC2)c2c1C(c1ccc(Cl)cc1)N(c1cc(C)c3nnc(C)n3c1)C2=O (stereo not drawn) [Example 151, 1-(azetidin-3-yl)-4-(4-chlorophenyl)-5-(3,8-dimethyl-[1,2,4]triazolo[4,3-a]pyridin-6-yl)-3-methyl-4,5-dihydropyrrolo[3,4-c]pyrazol-6(1H)-one] | 2610 | 778 | 226
10 | Cc1cc(N2C(=O)c3nn(C4CNC4)c(C)c3C2c2ccc(Cl)cc2)cn2c(C)nnc12 (stereo not drawn) [Example 152, 2-(azetidin-3-yl)-4-(4-chlorophenyl)-5-(3,8-dimethyl-[1,2,4]triazolo[4,3-a]pyridin-6-yl)-3-methyl-4,5-dihydropyrrolo[3,4-c]pyrazol-6(2H)-one] | 4330 | 2600 | 438
11 | CC(=O)N1CC(n2nc(C)c3c2C(=O)N(c2cc(C)c(=O)n(C)c2)C3c2ccc(Cl)cc2)C1 (stereo not drawn) [Example 153, 1-(1-acetylazetidin-3-yl)-4-(4-chlorophenyl)-5-(1,5-dimethyl-6-oxo-1,6-dihydropyridin-3-yl)-3-methyl-4,5-dihydropyrrolo[3,4-c]pyrazol-6(1H)-one] | 925 | 229 | 115
12 | CC(=O)N1CC(n2nc(C)c3c2C(=O)N(c2cc(C)c4nnc(C)n4c2)C3c2ccc(Cl)cc2)C1 (stereo not drawn) [Example 154, 1-(1-acetylazetidin-3-yl)-4-(4-chlorophenyl)-5-(3,8-dimethyl-[1,2,4]triazolo[4,3-a]pyridin-6-yl)-3-methyl-4,5-dihydropyrrolo[3,4-c]pyrazol-6(1H)-one] | 956 | 243 | 59
13 | CCOC(=O)N1CC(n2nc(C)c3c2C(=O)N(c2cc(C)c(=O)n(C)c2)C3c2ccc(Cl)cc2)C1 (stereo not drawn) [Example 155, Ethyl 3-(4-(4-chlorophenyl)-5-(1,5-dimethyl-6-oxo-1,6-dihydropyridin-3-yl)-3-methyl-6-oxo-5,6-dihydropyrrolo[3,4-c]pyrazol-1(4H)-yl)azetidine-1-carboxylate] | 638 | 120 | 73.4
14 | CCOC(=O)N1CC(n2nc(C)c3c2C(=O)N(c2cc(C)c4nnc(C)n4c2)C3c2ccc(Cl)cc2)C1 (stereo not drawn) [Example 156, Ethyl 3-(4-(4-chlorophenyl)-5-(3,8-dimethyl-[1,2,4]triazolo[4,3-a]pyridin-6-yl)-3-methyl-6-oxo-5,6-dihydropyrrolo[3,4-c]pyrazol-1(4H)-yl)azetidine-1-carboxylate] | 374 | 69.6 | 35.6
15 | Cc1nn(C2CN(C)C2)c2c1C(c1ccc(Cl)cc1)N(c1cc(C)c3nnc(C)n3c1)C2=O (stereo not drawn) [Example 157, 4-(4-chlorophenyl)-5-(3,8-dimethyl-[1,2,4]triazolo[4,3-a]pyridin-6-yl)-3-methyl-1-(1-methylazetidin-3-yl)-4,5-dihydropyrrolo[3,4-c]pyrazol-6(1H)-one] | 534 | 158 | 50
16 | Cc1cc(N2C(=O)c3nn(C4CN(C)C4)c(C)c3C2c2ccc(Cl)cc2)cn2c(C)nnc12 (stereo not drawn) [Example 158, 4-(4-chlorophenyl)-5-(3,8-dimethyl-[1,2,4]triazolo[4,3-a]pyridin-6-yl)-3-methyl-2-(1-methylazetidin-3-yl)-4,5-dihydropyrrolo-[3,4-c]pyrazol-6(2H)-one] | 484 | 142 | 26.6
17 | Cc1cc(N2C(=O)c3c(c(CF)nn3C3CC3)C2c2ccc(Cl)cc2)cn2c(C)nnc12 (stereo not drawn) [Example 159, 4-(4-chlorophenyl)-1-cyclopropyl-5-(3,8-dimethyl-[1,2,4]triazolo[4,3-a]pyridin-6-yl)-3-(fluoromethyl)-4,5-dihydropyrrolo[3,4-c]pyrazol-6(1H)-one] | 116 | 36.9 | 40
18 | Cc1nn(C2CC2)c2c1C(c1ccc(Cl)cc1)N(c1cn(C)c(=O)c3[nH]ccc13)C2=O (stereo not drawn) [Example 160, 4-(4-(4-chlorophenyl)-1-cyclopropyl-3-methyl-6-oxopyrrolo-[3,4-c]pyrazol-5(1H,4H,6H)-yl)-6-methyl-1H-pyrrolo[2,3-c]pyridin-7(6H)-one] | 426 | 56.1 | 66.2
19 | CNc1cc(N2C(=O)c3c(c(C)nn3C3CC3)[C@H]2c2ccc(Cl)cc2)nn2c(C)nnc12 [Example 161, (R)-4-(4-chlorophenyl)-1-cyclopropyl-3-methyl-5-(3-methyl-8-(methylamino)-[1,2,4]triazolo[4,3-b]pyridazin-6-yl)-4,5-dihydropyrrolo-[3,4-c]pyrazol-6(1H)-one] | 352 | 78.5 | 66.1
20 | COCc1nn(C2CC2)c2c1[C@@H](c1ccc(Cl)cc1)N(c1cc(C)c(=O)n(C)c1)C2=O [Example 162, (R)-4-(4-chlorophenyl)-1-cyclopropyl-5-(1,5-dimethyl-6-oxo-1,6-dihydropyridin-3-yl)-3-(methoxymethyl)-4,5-dihydropyrrolo[3,4-c]pyrazol-6(1H)-one] | 244 | 54.6 | 41.8
21 | COCc1nn(C2CC2)c2c1[C@@H](c1ccc(Cl)cc1)N(c1cc(C)c3nnc(C)n3c1)C2=O [Example 163, (R)-4-(4-chlorophenyl)-1-cyclopropyl-5-(3,8-dimethyl-[1,2,4]triazolo[4,3-a]pyridin-6-yl)-3-(methoxymethyl)-4,5-dihydropyrrolo-[3,4-c]pyrazol-6(1H)-one] | 79.8 | 17.5 | 10.3
22 | Cc1cc(N2C(=O)c3c(c(C4CC4)nn3C)[C@H]2c2ccc(Cl)cc2)cn2c(C)nnc12 [Example 164, (R)-4-(4-chlorophenyl)-3-cyclopropyl-5-(3,8-dimethyl-[1,2,4]triazolo[4,3-a]pyridin-6-yl)-1-methyl-4,5-dihydropyrrolo-[3,4-c]pyrazol-6(1H)-one] | 98.2 | 9.6 | 7.69
23 | Cc1n[nH]c2c1[C@@H](c1ccc(Cl)cc1)N(c1cc(C)c3nnc(C)n3c1)C2=O [Example 165, (R)-4-(4-chlorophenyl)-5-(3,8-dimethyl-[1,2,4]triazolo[4,3-a]pyridin-6-yl)-3-methyl-4,5-dihydropyrrolo[3,4-c]pyrazol-6(1H)-one] | 190 | 38.3 | 21.7
24 | Cc1cc(N2C(=O)c3c(c(CO)nn3C3CC3)[C@H]2c2ccc(Cl)cc2)cn2c(C)nnc12 [Example 166, (R)-4-(4-chlorophenyl)-1-cyclopropyl-5-(3,8-dimethyl-[1,2,4]triazolo[4,3-a]pyridin-6-yl)-3-(hydroxymethyl)-4,5-dihydropyrrolo-[3,4-c]pyrazol-6(1H)-one] | 94.6 | 17.1 | 9.38
